Target: 5-hydroxytryptamine receptor 6 (Homo sapiens, UniProt P50406)
Assay: Displacement of [3H]-LSD from recombinant human 5-HT6 receptor expressed in HEK293 cells after 60 mins
Type: cell-based

5-hydroxytryptamine receptor 6, sequence (P50406 whole entry): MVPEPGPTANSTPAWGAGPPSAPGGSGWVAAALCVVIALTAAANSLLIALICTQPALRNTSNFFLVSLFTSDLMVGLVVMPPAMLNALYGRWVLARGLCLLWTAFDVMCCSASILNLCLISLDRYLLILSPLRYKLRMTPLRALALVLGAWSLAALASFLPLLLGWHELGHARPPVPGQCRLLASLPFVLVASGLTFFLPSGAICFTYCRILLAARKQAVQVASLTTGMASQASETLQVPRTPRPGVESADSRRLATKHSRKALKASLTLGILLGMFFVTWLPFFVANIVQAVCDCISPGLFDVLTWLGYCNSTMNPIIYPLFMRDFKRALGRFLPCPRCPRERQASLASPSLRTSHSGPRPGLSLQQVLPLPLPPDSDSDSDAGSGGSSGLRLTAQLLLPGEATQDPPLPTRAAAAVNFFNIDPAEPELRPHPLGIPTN

Row | Ki [nM] | Structure (SMILES)
1 | 18.4 | COc1cccc2c1c(CN1CCN(C)CC1)cn2S(=O)(=O)c1ccc(F)cc1
2 | 9.6 | Cc1ccc(S(=O)(=O)n2cc(CN3CCN(C)CC3)c3ccccc32)cc1
3 | 119 | CN1CCN(Cc2cn(S(=O)(=O)c3ccc(F)c(F)c3)c3ccccc23)CC1
4 | 17 | CN1CCN(Cc2cn(S(=O)(=O)c3ccc(F)cc3)c3ccc(Br)cc23)CC1
5 | 58 | CN1CCN(Cc2cn(S(=O)(=O)c3cccc(F)c3)c3ccccc23)CC1
6 | 20 | CCN1CCN(Cc2cn(S(=O)(=O)c3ccc(F)cc3)c3ccc(OC)cc23)CC1
7 | 239 | COc1ccc2c(CN3CCN(C)CC3)cn(S(=O)(=O)c3ccc(F)cc3)c2c1
8 | 200 | CN1CCN(Cc2cn(S(=O)(=O)c3ccccc3Br)c3ccc([N+](=O)[O-])cc23)CC1
9 | 17.5 | CN1CCN(Cc2cn(S(=O)(=O)c3ccc(F)cc3)c3ccc(Cl)cc23)CC1
10 | 6 | CC(C)c1ccc(S(=O)(=O)n2cc(CN3CCN(C)CC3)c3ccccc32)cc1
11 | 90.5 | CN1CCN(Cc2cn(S(=O)(=O)c3ccc(C#N)cc3)c3ccccc23)CC1
12 | 12 | CN1CCN(Cc2cn(S(=O)(=O)c3ccccc3Br)c3ccc(F)cc23)CC1
13 | 18.7 | CN1CCN(Cc2cn(S(=O)(=O)c3ccccc3Br)c3ccc(O)cc23)CC1
14 | 96.3 | CN1CCN(Cc2cn(S(=O)(=O)c3ccc(Br)cc3)c3ccc(OCC(F)(F)F)cc23)CC1
15 | 50 | CC(C)c1ccc(S(=O)(=O)n2cc(CN3CCN(C)CC3)c3cc(O)ccc32)cc1
16 | 2.13 | CN1CCN(Cc2cn(S(=O)(=O)c3ccc(Br)cc3)c3ccccc23)CC1
17 | 9.2 | CN1CCN(Cc2cn(S(=O)(=O)c3ccc(Br)cc3)c3ccc(F)cc23)CC1
18 | 31.2 | CN1CCN(Cc2cn(S(=O)(=O)c3ccc(F)cc3)c3cccc(Cl)c23)CC1
19 | 19 | CN1CCN(Cc2cn(S(=O)(=O)c3cccc(Br)c3)c3ccccc23)CC1
20 | 194 | CSc1ccc2c(c1)c(CN1CCN(C)CC1)cn2S(=O)(=O)c1ccccc1Br
21 | 29 | CN1CCN(Cc2cn(S(=O)(=O)c3ccc(F)cc3Cl)c3ccccc23)CC1
22 | 30 | CN1CCN(Cc2cn(S(=O)(=O)c3ccc(F)cc3F)c3ccccc23)CC1
23 | 27.6 | CC(C)c1ccc(S(=O)(=O)n2cc(CN3CCN(C)CC3)c3cc(Br)ccc32)cc1
24 | 59.7 | CN1CCN(Cc2cn(S(=O)(=O)c3ccc(Br)cc3)c3cc(Cl)ccc23)CC1
25 | 34.9 | CN1CCN(Cc2cn(S(=O)(=O)c3ccc(F)cc3)c3ccc(O)cc23)CC1

Second part, the compound before the results:

Row | Structure (SMILES) | Ki [nM]
26 | CN1CCN(Cc2cn(S(=O)(=O)c3ccccc3Br)c3cccc(Cl)c23)CC1 | 23.5
27 | CN1CCN(Cc2cn(S(=O)(=O)c3ccccc3)c3ncccc23)CC1 | 277
28 | COc1ccc2c(c1)c(CN1CCNCC1)cn2S(=O)(=O)c1ccc(C(C)C)cc1 | 5.7
29 | CN1CCN(Cc2cn(S(=O)(=O)c3ccccc3Br)c3ccccc23)CC1 | 10.2
30 | COc1ccc2c(c1)c(CN1CCNCC1)cn2S(=O)(=O)c1ccc(F)cc1 | 6.9
31 | CN1CCN(Cc2cn(S(=O)(=O)c3c(F)cccc3F)c3ccccc23)CC1 | 64
32 | CN1CCN(Cc2cn(S(=O)(=O)c3ccc(OC(F)(F)F)cc3)c3ccccc23)CC1 | 150
33 | COc1ccc2c(c1)c(CN1CCN(C)CC1)c(Cl)n2S(=O)(=O)c1ccc(C(C)C)cc1 | 29.6
34 | CN1CCN(Cc2c[nH]c3ccccc23)CC1 | 482
35 | CCN1CCN(Cc2cn(S(=O)(=O)c3ccc(C(C)C)cc3)c3ccc(OC)cc23)CC1 | 1.7
36 | COc1ccc2c(c1)c(CN1CCN(C)CC1)nn2S(=O)(=O)c1ccccc1Br | 348
37 | CN1CCN(Cc2cn(S(=O)(=O)c3ccccc3F)c3ccccc23)CC1 | 7.8
38 | O=S(=O)(c1ccccc1Br)n1cc(CN2CCN(Cc3ccccc3)CC2)c2ccccc21 | 133
39 | CN1CCN(CCc2cn(S(=O)(=O)c3cccc(Br)c3)c3ccc(Br)cc23)CC1 | 289
40 | Cc1c(CN2CCN(C)CC2)c2ccccc2n1S(=O)(=O)c1ccc(F)cc1 | 55.6
41 | COc1ccc(OC)c(S(=O)(=O)n2cc(CN3CCN(C)CC3)c3ccccc32)c1 | 91
42 | CN1CCN(Cc2cn(C(=O)c3ccccc3Br)c3ccc(F)cc23)CC1 | 326
43 | CC(C)Oc1ccc2c(c1)c(CN1CCN(C)CC1)cn2S(=O)(=O)c1ccccc1Br | 36.3

Row | Structure (SMILES) | Ki [nM]
44 | O=C(c1ccccc1)N1CCN(Cc2cn(S(=O)(=O)c3ccccc3Br)c3ccccc23)CC1 | 365
45 | CN1CCN(Cc2cn(S(=O)(=O)c3cccc4ccccc34)c3ccccc23)CC1 | 11.5
46 | COc1ccc2c(c1)c(CN1CCN(CCF)CC1)cn2S(=O)(=O)c1ccccc1Br | 348
47 | CN1CCN(CCc2cn(S(=O)(=O)c3ccccc3Br)c3ccc(Br)cc23)CC1 | 398
48 | CN1CCN(Cc2cn(S(=O)(=O)c3ccc(Cl)cc3Cl)c3ccccc23)CC1 | 28.2
49 | COc1cccc2c1c(CN1CCN(C)CC1)cn2S(=O)(=O)c1ccccc1Br | 14.3
50 | Cc1ccc(C)c(S(=O)(=O)n2cc(CN3CCN(C)CC3)c3ccccc32)c1 | 64
51 | CN1CCN(Cc2cn(S(=O)(=O)c3ccccc3)c3cc(Cl)ccc23)CC1 | 35.7
52 | CN1CCN(Cc2cn(S(=O)(=O)c3c(Cl)cccc3Cl)c3ccccc23)CC1 | 100
53 | O=S(=O)(c1ccccc1Br)n1cc(CN2CCNCC2)c2ccccc21 | 4.5
54 | O=S(=O)(c1ccccc1)n1cc(CN2CCNCC2)c2ccccc21 | 7.5
55 | CC(=O)N1CCN(Cc2cn(S(=O)(=O)c3ccccc3Br)c3ccccc23)CC1 | 385
56 | CCN1CCN(Cc2cn(S(=O)(=O)c3ccccc3Br)c3ccc(OC)cc23)CC1 | 6.7
57 | COc1ccc2c(CN3CCN(C)CC3)cn(S(=O)(=O)c3ccc(C(C)C)cc3)c2c1 | 36.1
58 | O=S(=O)(c1ccccc1Br)n1cc(CN2CCNCC2)c2ncccc21 | 95
59 | CN1CCN(Cc2cn(Cc3ccccc3Br)c3ccccc23)CC1 | 312
60 | CN1CCN(Cc2cn(S(=O)(=O)c3cccc(Cl)c3)c3ccccc23)CC1 | 16.3
61 | CC(C)c1ccc(S(=O)(=O)n2cc(CN3CCN(C)CC3)c3c(Cl)cccc32)cc1 | 9.2

Source: ChEMBL document CHEMBL4007422 (J Med Chem, 2017)
